Measured values taken from US4762648A, “Monofunctional and bisfunctional anthraquinone-(oxy-2,3-oxidopropanes), processes for their preparation, and their use as drugs” (Hoechst Aktiengesellschaft, priority 1983, dated 1988).
In brackets after ≈: the same amount, converted by molar mass.

Experiments:
L 1210 leukemia cells [1] = assay: Proliferation assay: incorporation of C-14-thymidine in L 1210 cells; type: cell-based; details: Mus musculus, read-out: Proliferation assay IC50
Protocol: The determination of the cytotoxic activity of the compounds described in the present patent is carried out on L 1210 leukemia cells of the mouse. Specifically, the following test systems were used:
In this in vitro method, after incubation of the cells with varying concentrations of the test substance a determination is carried out of the extent to which the cells can incorporate radioactively labelled DNA-precursors (for example C-14-labelled thymidine).
L 1210 Cells in the exponential growth phase (5×10^3 /ml in RPMI 1640) are incubated for 72 hours, in a microtitration plate, with different concentrations of the test substance (37° C., 5% CO2, 95% relative atmospheric humidity). Controls consist of cells which are incubated solely with fresh medium. All assays are carried out in quadruplicate. After 65 hours, 50 μl of C-14-thymidine (1.5 μc/ml) are added in order to radioactively label the DNA of the cell. After 7 hours' incubation, the cells are filtered off with suction, and the DNA is precipitated with 5% strength dichloroacetic acid and successively washed with water and methanol. After drying at 50° C., the radioactivity built into the DNA is determined after adding 5 ml of scintillation fluid.
The results are quoted as a ratio of the scintillation indices obtained after incubation with the test substance and obtained with the untreated control. From the measurements thus obtained, the dose/effect curve is determined and the IC50, i.e. the concentration which under test conditions reduces the incorporation of radioactive thymidine by 50% relative to the control, is determined graphically.

L 1210 leukemia cells [2] = assay: Colony formation of L 1210 leukemia cells in soft agar (stem cell assay); type: cell-based; details: Mus musculus
Protocol: In this test, cytostatically active substances produce a reduction of the number of colonies observed relative to an untreated control. Specifically, the test is carried out as follows:
500 Leukemia cells per plate are incubated with different concentrations of test substance for 1 hour at 37° C. The cells are then washed twice with McCoy 5a medium and finally, after addition of 0.3% of agar, poured out into Petri dishes. Controls are incubated with fresh medium only. In place of the 1-hour incubation, different concentrations of the test substance are in some cases mixed into the upper agar layer so as to achieve continuous exposure of the cells over the entire incubation period. After the agar has solidified, the plates are incubated in an incubating chamber for 7 days at 37° C. (5% CO2, 95% relative atmospheric humidity). Thereafter, the number of colonies formed which have a diameter of 60μ is counted. The results are quoted as the number of colonies in the treated agar plates expressed as a percentage of those in the untreated control. From the dose/effect curve thus obtained, the IC50 is determined and serves as a measure of the effectiveness of the substance.

[3] = Determination of acute toxicity, intraperitoneal; details: mouse, in vivo, ip, NMRI mice, day 14, Litchfield Wilcoxon
Protocol: To determine the acute toxicity, NMRI mice were injected intraperitoneally,on day 0, with different doses of the test substance suspended in 0.5 ml of 0.5% strength carboxymethylcellulose. Control groups were given solely 0.5 ml of carboxymethylcellulose solution. 5 Mice were employed per concentration of test substance. On day 14, the number of surviving mice is determined and the LD50 found therefrom by the Litchfield Wilcoxon method.

[4] = L1210, L 1210 cells, 72 hours, C-14-thymidine incorporation
[5] = L1210, 168 h, L 1210 colony formation in soft agar, continuous exposure, 7 days, read-out: Stem cell assay IC50, Incubation: Continuous
[6] = L1210, L 1210 colony formation in soft agar, 1 hour incubation, 7 days, read-out: Stem cell assay IC50, Incubation: 1 hour

| SMILES | IC50 (L 1210 leukemia cells [1]; [4]) [µg/mL] | IC50 (L 1210 leukemia cells [2]; [5]) [µg/mL] | IC50 (L 1210 leukemia cells [2]; [6]) [µg/mL] | IC50 (L 1210 leukemia cells [1]; L1210, 72 h) [µg/mL] | IC50 (L 1210 leukemia cells [2]; L1210, 168 h, read-out: Stem cell assay IC50, Incubation: Continuous) [µg/mL] | IC50 (L 1210 leukemia cells [2]; L1210, read-out: Stem cell assay IC50, Incubation: 1 hour) [µg/mL] | LD50 at 336 h [3] [mg/kg] |
| --- | --- | --- | --- | --- | --- | --- | --- |
| O=C1c2cccc(OCC3CO3)c2C(=O)c2c(OCC3CO3)cccc21 (centres unmarked) [Example 8, Anthraquinone-1,8-bis-(oxy-2,3-oxido-propane)] | 0.028 (≈ 0.0795 µM) | 0.0085 (≈ 0.0241 µM) | 0.03 (≈ 0.0851 µM) | – | – | – | – |
| COc1cccc2c1C(=O)c1c(O)c3c(c(O)c1C2=O)C[C@@](O)(C(=O)CO)C[C@@H]3O[C@H]1C[C@H](N)[C@H](O)[C@H](C)O1 [Adriamycin, reference compound] | – | – | – | 0.006 (≈ 0.011 µM) | 0.02 (≈ 0.0368 µM) | 0.044 (≈ 0.081 µM) | 14 |
| O=C1c2ccc(OCC3CO3)cc2C(=O)c2ccc(OCC3CO3)cc21 (centres unmarked) [Example 5, Anthraquinone-2,6-bis(oxy-2,3-oxido-propane)] | – | 0.01 (≈ 0.0284 µM) | 0.0083 (≈ 0.0236 µM) | 0.0044 (≈ 0.0125 µM) | – | – | 200 |
| O=C1c2ccccc2C(=O)c2c(OCC3CO3)ccc(OCC3CO3)c21 (centres unmarked) [Example 4, Anthraquinone-1,4-bis-(oxy-2,3-oxido-propane)] | 0.0022 (≈ 0.00624 µM) | 0.0033 (≈ 0.00937 µM) | 0.004 (≈ 0.0114 µM) | – | – | – | – |
| O=C1c2ccccc2C(=O)c2c(OCC3CO3)ccc(O)c21 (centres unmarked) [Example 3, 1-Hydroxy-anthraquinone-4-(oxy-2,3-oxido-propane)] | 0.028 (≈ 0.0945 µM) | 0.03 (≈ 0.101 µM) | 0.066 (≈ 0.223 µM) | – | – | – | – |
